Here are results for 37 compounds from patent US9540358B2, “Tricyclic compounds as anticancer agents” (ICAHN SCHOOL OF MEDICINE AT MOUNT SINAI, priority 2011, dated 2017).

The first assay deals with H1650 lung cancer cells. The assay is described as follows: Cell viability assay (MTT, IC50 determination). The assay is classed as cell-based. To be noted: 48 hours after drug treatment, MTT. The procedure: 89(22): p. […] H1650 lung cancer cells were plated at 150,000 cells per well in a 12 well plate. Twenty-four hours after plating, cells were treated as described with increasing concentrations of drug and control. Forty-eight hours after drug treatment, cells were treated with 100 μL of 3-(4,5-Dimethylthiazol-2-yl)-2,5-diphenyltetrazolium bromide (MTT) and incubated for 2 hours at 37 C. The MTT solution was subsequently replaced with 300 μL of n-propyl alcohol and re-aliquoted to a 96 well plates. Spectrophotometric analysis of each solution was performed using a 96 well plate reader at 600 nm in triplicate.
For `COC(=O)NCCCN1c2ccccc2CCc2ccc(Cl)cc21` [Example 9, Methyl (3-(3-chloro-10,11-dihydro-5H-dibenzo[b,f]azepin-5-yl)propyl)carbamate], the 50% inhibitory concentration (IC50) came out at 30 µM. As for `COc1ccc(S(=O)(=O)NCCCN2c3ccccc3Sc3ccc(Cl)cc32)cc1` [Example 11, N-(3-(2-chloro-10H-phenothiazin-10-yl)propyl)-4-methoxybenzenesulfonamide], the “IC50 (Cell Viability Data)” value is reported as “INACTIVE”. Still for that read-out and setting: under `O=S(=O)(NCCCN1c2ccccc2CCc2ccc(Cl)cc21)c1ccc(Cl)cc1F` [Example 28, N-(3-(3-chloro-10,11-dihydro-5H-dibenzo[b,f]azepin-5-yl)propyl)-4-chloro-2-fluorobenzenesulfonamide] stands “INACTIVE”.

Still in this assay, the particulars now being: Homo sapiens, NCI-H1650, 48 hours after drug treatment, MTT.
Regarding `Cc1ccc(S(=O)(=O)NCCCN2c3ccccc3Sc3ccc(Cl)cc32)cc1` [Example 3, N-(3-(2-chloro-10H-phenothiazin-10-yl)propyl)-4-methylbenzenesulfonamide], half-maximal inhibition (IC50) required 20 µM.

Turning to `COC(=O)NCCCN1c2ccccc2Sc2ccc(Cl)cc21` [Example 4, Methyl (3-(2-chloro-10H-phenothiazin-10-yl)propyl)carbamate], the half-inhibitory concentration (IC50) was found to be 10 µM.

As for `Cc1ccc(S(=O)(=O)NCCCN2c3ccccc3CCc3ccc(Cl)cc32)cc1` [Example 8, N-(3-(3-chloro-10,11-dihydro-5H-dibenzo[b,f]azepin-5-yl)propyl)-4-methylbenzenesulfonamide], the IC50 amounted to 20 µM.

`CN(C)C(=O)NCCCN1c2ccccc2CCc2ccc(Cl)cc21` [Example 10, 3-(3-(3-chloro-10,11-dihydro-5H-dibenzo[b,f]azepin-5-yl)propyl)-1,1-dimethylurea] gave an IC50 of 20 µM. For the compound `O=S(=O)(NCCCN1c2ccccc2Sc2ccc(Cl)cc21)c1cc(F)cc(F)c1` [Example 13], the IC50 was 18 µM. Compound `N#Cc1ccc(S(=O)(=O)NCCCN2c3ccccc3Sc3ccc(Cl)cc32)cc1` [Example 14, N-(3-(2-chloro-10H-phenothiazin-10-yl)propyl)-4-cyanobenzenesulfonamide] had an IC50 of 40 µM. Take `O=S(=O)(NCCCN1c2ccccc2Sc2ccc(Cl)cc21)c1ccc(Cl)cc1` [Example 15, 4-Chloro-N-(3-(2-chloro-10H-phenothiazin-10-yl)propyl)benzenesulfonamide]: the IC50 came to 20 µM. On the same count and under the same terms, to `CN(C)C(=O)NCCCN1c2ccccc2Sc2ccc(Cl)cc21` [Example 17, 3-(3-(2-Chloro-10H-phenothiazin-10-yl)propyl)-1,1-dimethylurea] belongs more than 50 µM; to `NCCCN1c2ccccc2CCc2ccccc21` [Example 19, 3-(10,11-dihydro-5H-dibenzo[b,f]azepin-5-yl)propan-1-aminium chloride], 24.4 µM. Turning to `O=S(=O)(NCCCN1c2ccccc2CCc2ccc(Cl)cc21)c1ccc(F)cc1` [Example 20, N-(3-(3-chloro-10,11-dihydro-5H-dibenzo[b,f]azepin-5-yl)propyl)-4-fluorobenzenesulfonamide], the IC50 was more than 40 µM. On the same count and under the same terms, under `O=S(=O)(NCCCN1c2ccccc2CCc2ccc(Cl)cc21)c1ccc(C(F)(F)F)cc1` [Example 21, N-(3-(3-chloro-10,11-dihydro-5H-dibenzo[b,f]azepin-5-yl)propyl)-4-(trifluoromethyl)benzenesulfonamide] stands 15.3 µM. For `N#Cc1ccc(S(=O)(=O)NCCCN2c3ccccc3CCc3ccc(Cl)cc32)cc1` [Example 22, N-(3-(3-chloro-10,11-dihydro-5H-dibenzo[b,f]azepin-5-yl)propyl)-4-cyanobenzenesulfonamide], half-maximal inhibition (IC50) required 11.1 µM. The same measure, in the same setting: to `O=S(=O)(NCCCN1c2ccccc2CCc2ccc(Cl)cc21)c1ccc(Cl)cc1` [Example 23, 4-Chloro-N-(3-(3-chloro-10,11-dihydro-5H-dibenzo[b,f]azepin-5-yl)propyl)benzenesulfonamide] belongs approximately 25 µM. The same measure, in the same setting: to `CS(=O)(=O)c1ccc(S(=O)(=O)NCCCN2c3ccccc3CCc3ccc(Cl)cc32)cc1` [Example 24, N-(3-(3-chloro-10,11-dihydro-5H-dibenzo[b,f]azepin-5-yl)propyl)-4-(methylsulfonyl)benzenesulfonamide] belongs 15.1 µM. Same read-out and setting: to `COc1ccc(S(=O)(=O)NCCCN2c3ccccc3CCc3ccc(Cl)cc32)cc1` [Example 25, N-(3-(3-chloro-10,11-dihydro-5H-dibenzo[b,f]azepin-5-yl)propyl)-4-methoxybenzenesulfonamide] belongs less than 40 µM. In turn, `O=S(=O)(NCCCN1c2ccccc2CCc2ccc(Cl)cc21)c1ccc(Cl)cc1Cl` [Example 26, 2,4-dichloro-N-(3-(3-chloro-10,11-dihydro-5H-dibenzo[b,f]azepin-5-yl)propyl)benzenesulfonamide] yielded a half-maximal inhibitory concentration (IC50) of more than 40 µM. As to `O=S(=O)(NCCCN1c2ccccc2CCc2ccc(Cl)cc21)c1ccc(Cl)c(Cl)c1` [Example 29, 3,4-dichloro-N-(3-(3-chloro-10,11-dihydro-5H-dibenzo[b,f]azepin-5-yl)propyl)benzenesulfonamide], the IC50 is approximately 25 µM. Same read-out and setting: under `O=S(=O)(NCCN1c2ccccc2CCc2ccc(Cl)cc21)c1ccc(Cl)cc1` [Example 33, 4-chloro-N-(2-(3-chloro-10,11-dihydro-5H-dibenzo[b,f]azepin-5-yl)ethyl)benzenesulfonamide] stands approximately 20 µM; under `O=S(=O)(NCCN1c2ccccc2CCc2ccc(Cl)cc21)c1ccc(C(F)(F)F)cc1` [Example 34, N-(2-(3-chloro-10,11-dihydro-5H-dibenzo[b,f]azepin-5-yl)ethyl)-4-(trifluoromethyl)benzenesulfonamide], approximately 20 µM. Take `O=S(=O)(NCCCN1c2ccccc2CCc2ccccc21)c1ccc(Cl)cc1` [Example 35, 4-chloro-N-(3-(10,11-dihydro-5H-dibenzo[b,f]azepin-5-yl)propyl)benzenesulfonamide]: the IC50 is approximately 20 µM. The compound `O=S(=O)(NCCCN1c2ccccc2CCc2ccccc21)c1ccc(C(F)(F)F)cc1` [Example 36, N-(3-(10,11-dihydro-5H-dibenzo[b,f]azepin-5-yl)propyl)-4-(trifluoromethyl)benzenesulfonamide] registered an IC50 of approximately 15 µM. Same read-out and setting: under `O=S(=O)(NCCN1c2ccccc2CCc2ccc(Cl)cc21)c1ccc(OC(F)(F)F)cc1` [Example 37, N-(2-(3-chloro-10,11-dihydro-5H-dibenzo[b,f]azepin-5-yl)ethyl)-4-(trifluoromethoxy)benzenesulfonamide] stands approximately 25 µM; under `O=S(=O)(NCCCN1c2ccccc2CCc2cc(Cl)ccc21)c1ccc(C(F)(F)F)cc1` [Example 38, N-(3-(2-chloro-10,11-dihydro-5H-dibenzo[b,f]azepin-5-yl)propyl)-4-(trifluoromethyl)benzenesulfonamide], approximately 10 µM; under `O=S(=O)(NCCCN1c2ccccc2CCc2ccc(Cl)cc21)c1cccc(C(F)(F)F)c1` [Example 39, N-(3-(3-chloro-10,11-dihydro-5H-dibenzo[b,f]azepin-5-yl)propyl)-3-trifluoromethylbenzenesulfonamide], approximately 10 µM. On the same count and under the same terms, under `O=[N+]([O-])c1ccc(S(=O)(=O)NCCCN2c3ccccc3CCc3ccc(Cl)cc32)cc1` [Example 40, N-(3-(3-chloro-10,11-dihydro-5H-dibenzo[b,f]azepin-5-yl)propyl)-4-nitrobenzenesulfonamide] stands approximately 15 µM; under `O=S(=O)(NCCN1c2ccccc2Sc2ccc(Cl)cc21)c1ccc(C(F)(F)F)cc1` [Example 41, 4-trifluoromethyl-N-(2-(2-chloro-10H-phenothiazin-10-yl)ethyl)benzenesulfonamide], approximately 25 µM.

Turning to `O=S(=O)(NCCN1c2ccccc2Sc2ccc(Cl)cc21)c1ccc(OC(F)(F)F)cc1` [Example 42, 4-trifluoromethoxy-N-(2-(2-chloro-10H-phenothiazin-10-yl)ethyl)benzenesulfonamide], the 50% inhibitory concentration (IC50) is approximately 25 µM. Same read-out and setting: to `Nc1ccc2c(c1)N(CCCNS(=O)(=O)c1ccc(C(F)(F)F)cc1)c1ccccc1CC2` [Example 43, N-(3-(3-amino-10,11-dihydro-5H-dibenzo[b,f]azepin-5-yl)propyl)-4-(trifluoromethyl)benzenesulfonamide] belongs approximately 35 µM. As to `[N-]=[N+]=Nc1ccc2c(c1)N(CCCNS(=O)(=O)c1ccc(C(F)(F)F)cc1)c1ccccc1CC2` [Example 44, N-(3-(3-azido-10,11-dihydro-5H-dibenzo[b,f]azepin-5-yl)propyl)-4-(trifluoromethyl)benzenesfulfonamide], the IC50 is approximately 30 µM. On the same count and under the same terms, to `O=S(=O)(NCCCN1c2ccccc2CCc2ccc(Cl)cc21)c1ccccc1` [Example 45, N-(3-(3-chloro-10,11-dihydro-5H-dibenzo[b,f]azepin-5-yl)propyl)benzenesulfonamide] belongs approximately 25 µM. On the same count and under the same terms, to `O=S(=O)(NCCN1c2ccccc2Sc2ccccc21)c1ccc(OC(F)(F)F)cc1` [Example 46, N-(2-(10H-phenothiazin-10-yl)ethyl)-4-trifluoromethoxybenzenesulfonamide] belongs approximately 30 µM; to `O=S(=O)(NCCN1c2ccccc2Sc2ccccc21)c1ccc(Cl)cc1` [Example 47, N-(2-(10H-phenothiazin-10-yl)ethyl)-4-chlorobenzenesulfonamide], approximately 30 µM.

As to `O=S(=O)(NCCC=C1c2ccccc2CCc2ccccc21)c1ccc(Cl)cc1` [Example 50, 4-Chloro-N-(3-(10,11-dihydro-5H-dibenzo[a,d][7]annulen-5-ylidene)propyl)benzenesulfonamide], the IC50 was approximately 15 µM. The same measure, in the same setting: to `O=S(=O)(NCCC=C1c2ccccc2CCc2ccccc21)c1ccc(OC(F)(F)F)cc1` [Example 51, N-(3-(10,11-dihydro-5H-dibenzo[a,d][7]annulen-5-ylidene)propyl)-4-(trifluoromethoxy)benzenesulfonamide] belongs approximately 20 µM.

As usually defined, the IC50 is the concentration at which inhibition is half-maximal. A lower IC50 goes with higher potency.
